Laboratory results: US20240092835A1, “NOVEL PEPTIDES CAPABLE OF ALTERING NK CELL ACTIVITY” (Massachusetts Institute of Technology, priority 2022, published 2024)

What was measured:
NKG2A+/NKG2C− NK cells = assay: NK cell activation markers in NKG2A+/NKG2C- NK cells incubated with peptide and K562 expressing HLA-E (inhibition); format: cell-based, human; conditions: for effect on NKG2A+/NKG2C− NK cell inhibition (in words): K562 expressing HLA-E, CD107a, IFNG, TNF, CCL3; for percentage of CCL3+ NK cells / percentage of CD107a+ NK cells / percentage of IFNG+ NK cells / percentage of TNF+ NK cells: NKG2A+/NKG2C- NK cells, K562/HLA-E
Experimental: (§1) A human immortalized myelogenous leukemia cell line (K562), which expresses HLA-E was incubated with novel peptides (Table 1) derived from the human proteome or human cytomegalovirus proteome. […] Controls assessments were also performed using NKG2A−/NKG2C− cells (Tables 10-13). Inhibition was indicated by a decrease in percent cells positive for cell surface markers, while activation was indicated by an increase in percent cells positive for cell surface markers.

NKG2A−/NKG2C+ NK cells = assay: NK cell activation markers in NKG2A-/NKG2C+ NK cells incubated with peptide and K562 expressing HLA-E (activation); format: cell-based, human; conditions: for effect on NKG2A−/NKG2C+ NK cell activation (in words): K562 expressing HLA-E, CD107a, IFNG, TNF, CCL3; for percentage of CCL3+ NK cells / percentage of CD107+ NK cells / percentage of IFNG+ NK cells / percentage of TNF+ NK cells: NKG2A-/NKG2C+ NK cells, K562/HLA-E
Experimental: as §1

NKG2A−/NKG2C− NK cells = assay: NK cell activation markers in control NKG2A-/NKG2C- NK cells incubated with peptide and K562 expressing HLA-E; format: cell-based, human
Experimental: as §1

HLA-E = target: T1, HLA-E (Homo sapiens, UniProt P13747); assay: HLA-E surface stabilization assay with RMA-S/HLA-E cells; format: cell-based; conditions: 30 μM peptide, 16 hours; for HLA-E surface expression stability (GeoMFI): anti-HLA-E antibody
T1 construct: expressed in transfected cells; host or cells: RMA-S/HLA-E cells (antigen processing-defective lymphoma cell line)
T1 sequence (P13747 22-358): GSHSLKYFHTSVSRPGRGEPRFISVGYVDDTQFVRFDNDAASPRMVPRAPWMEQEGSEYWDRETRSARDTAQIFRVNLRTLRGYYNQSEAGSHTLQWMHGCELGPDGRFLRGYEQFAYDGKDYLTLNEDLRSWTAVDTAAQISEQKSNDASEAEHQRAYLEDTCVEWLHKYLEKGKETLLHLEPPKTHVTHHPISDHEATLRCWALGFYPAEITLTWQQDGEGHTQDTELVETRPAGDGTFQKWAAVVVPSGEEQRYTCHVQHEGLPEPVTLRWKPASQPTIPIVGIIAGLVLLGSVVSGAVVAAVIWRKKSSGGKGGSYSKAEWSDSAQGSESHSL
T1 sequence (P61769 21-119 partner): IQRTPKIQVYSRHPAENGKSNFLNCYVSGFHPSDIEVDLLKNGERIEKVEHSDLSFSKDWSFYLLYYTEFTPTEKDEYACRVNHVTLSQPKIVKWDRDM
Experimental: HLA-E surface expression was assessed by measuring geometric mean fluorescence intensity (GeoMFI) in RMA-S cells following immunofluorescence staining with an anti-HLA-E antibody (Table 14). Increased GeoMFI was indicative of increased HLA-E surface expression stability following novel peptide exposures (FIG. 3).

ILTDRSLWL [human4, peptide FBXO41 670-678 derived from the human proteome]
effect on NKG2A+/NKG2C− NK cell inhibition (in words) (NKG2A+/NKG2C− NK cells): mild inhibitory effects
percentage of CCL3+ NK cells (NKG2A+/NKG2C− NK cells; Trial 1): 35.5%
percentage of CD107a+ NK cells (NKG2A+/NKG2C− NK cells; Trial 1): 16.9%
percentage of IFNG+ NK cells (NKG2A+/NKG2C− NK cells; Trial 1): 5.47%
percentage of TNF+ NK cells (NKG2A+/NKG2C− NK cells; Trial 1): 1.97%
percentage of CCL3+ NK cells (NKG2A+/NKG2C− NK cells; Trial 2): 56.4%
percentage of CD107a+ NK cells (NKG2A+/NKG2C− NK cells; Trial 2): 23.7%
percentage of IFNG+ NK cells (NKG2A+/NKG2C− NK cells; Trial 2): 8.81%
percentage of TNF+ NK cells (NKG2A+/NKG2C− NK cells; Trial 2): 4.06%
percentage of CCL3+ NK cells (NKG2A+/NKG2C− NK cells; Trial 3): 34.7%
percentage of CD107a+ NK cells (NKG2A+/NKG2C− NK cells; Trial 3): 22%
percentage of IFNG+ NK cells (NKG2A+/NKG2C− NK cells; Trial 3): 13.3%
percentage of TNF+ NK cells (NKG2A+/NKG2C− NK cells; Trial 3): 7.29%
percentage of CCL3+ NK cells (NKG2A+/NKG2C− NK cells; Trial 4): 16.1%
percentage of CD107a+ NK cells (NKG2A+/NKG2C− NK cells; Trial 4): 15%
percentage of IFNG+ NK cells (NKG2A+/NKG2C− NK cells; Trial 4): 3.31%
percentage of TNF+ NK cells (NKG2A+/NKG2C− NK cells; Trial 4): 2.82%
percentage of CCL3+ NK cells (NKG2A+/NKG2C− NK cells; Trial 5): 32.7%
percentage of CD107a+ NK cells (NKG2A+/NKG2C− NK cells; Trial 5): 14.8%
percentage of IFNG+ NK cells (NKG2A+/NKG2C− NK cells; Trial 5): 6.82%
percentage of TNF+ NK cells (NKG2A+/NKG2C− NK cells; Trial 5): 3.39%
percentage of CCL3+ NK cells (NKG2A+/NKG2C− NK cells; Trial 6): 13.4%
percentage of CD107a+ NK cells (NKG2A+/NKG2C− NK cells; Trial 6): 12.8%
percentage of IFNG+ NK cells (NKG2A+/NKG2C− NK cells; Trial 6): 3.02%
percentage of TNF+ NK cells (NKG2A+/NKG2C− NK cells; Trial 6): 2.79%
effect on NKG2A−/NKG2C+ NK cell activation (in words) (NKG2A−/NKG2C+ NK cells): strong activating effects
percentage of CCL3+ NK cells (NKG2A−/NKG2C+ NK cells; Trial 1): 77.9%
percentage of CD107+ NK cells (NKG2A−/NKG2C+ NK cells; Trial 1): 76.7%
percentage of IFNG+ NK cells (NKG2A−/NKG2C+ NK cells; Trial 1): 62.2%
percentage of TNF+ NK cells (NKG2A−/NKG2C+ NK cells; Trial 1): 49.6%
percentage of CCL3+ NK cells (NKG2A−/NKG2C+ NK cells; Trial 2): 87.9%
percentage of CD107+ NK cells (NKG2A−/NKG2C+ NK cells; Trial 2): 79.5%
percentage of IFNG+ NK cells (NKG2A−/NKG2C+ NK cells; Trial 2): 70.5%
percentage of TNF+ NK cells (NKG2A−/NKG2C+ NK cells; Trial 2): 57.3%
percentage of CCL3+ NK cells (NKG2A−/NKG2C+ NK cells; Trial 3): 84.4%
percentage of CD107+ NK cells (NKG2A−/NKG2C+ NK cells; Trial 3): 84.8%
percentage of IFNG+ NK cells (NKG2A−/NKG2C+ NK cells; Trial 3): 75.9%
percentage of TNF+ NK cells (NKG2A−/NKG2C+ NK cells; Trial 3): 65.5%
percentage of CCL3+ NK cells (NKG2A−/NKG2C+ NK cells; Trial 4): 74%
percentage of CD107+ NK cells (NKG2A−/NKG2C+ NK cells; Trial 4): 73.4%
percentage of IFNG+ NK cells (NKG2A−/NKG2C+ NK cells; Trial 4): 66.6%
percentage of TNF+ NK cells (NKG2A−/NKG2C+ NK cells; Trial 4): 57.4%
percentage of CCL3+ NK cells (NKG2A−/NKG2C+ NK cells; Trial 5): 81.2%
percentage of CD107+ NK cells (NKG2A−/NKG2C+ NK cells; Trial 5): 77.9%
percentage of IFNG+ NK cells (NKG2A−/NKG2C+ NK cells; Trial 5): 70.4%
percentage of TNF+ NK cells (NKG2A−/NKG2C+ NK cells; Trial 5): 64.7%
percentage of CCL3+ NK cells (NKG2A−/NKG2C+ NK cells; Trial 6): 64.6%
percentage of CD107+ NK cells (NKG2A−/NKG2C+ NK cells; Trial 6): 64.2%
percentage of IFNG+ NK cells (NKG2A−/NKG2C+ NK cells; Trial 6): 54%
percentage of TNF+ NK cells (NKG2A−/NKG2C+ NK cells; Trial 6): 43%
percentage CCL3+ NK cells (NKG2A−/NKG2C− NK cells; Trial 1): 37.2%
percentage CD107+ NK cells (NKG2A−/NKG2C− NK cells; Trial 1): 27.2%
percentage TNF+ NK cells (NKG2A−/NKG2C− NK cells; Trial 1): 3.99%
percentage of IFNG+ NK cells (NKG2A−/NKG2C− NK cells; Trial 1): 15.4%
percentage CCL3+ NK cells (NKG2A−/NKG2C− NK cells; Trial 2): 56.3%
percentage CD107+ NK cells (NKG2A−/NKG2C− NK cells; Trial 2): 33.5%
percentage TNF+ NK cells (NKG2A−/NKG2C− NK cells; Trial 2): 7.5%
percentage of IFNG+ NK cells (NKG2A−/NKG2C− NK cells; Trial 2): 20.8%
percentage CCL3+ NK cells (NKG2A−/NKG2C− NK cells; Trial 3): 48.3%
percentage CD107+ NK cells (NKG2A−/NKG2C− NK cells; Trial 3): 44%
percentage TNF+ NK cells (NKG2A−/NKG2C− NK cells; Trial 3): 13.8%
percentage of IFNG+ NK cells (NKG2A−/NKG2C− NK cells; Trial 3): 33.7%
percentage CCL3+ NK cells (NKG2A−/NKG2C− NK cells; Trial 4): 35.9%
percentage CD107+ NK cells (NKG2A−/NKG2C− NK cells; Trial 4): 32.1%
percentage TNF+ NK cells (NKG2A−/NKG2C− NK cells; Trial 4): 10.2%
percentage of IFNG+ NK cells (NKG2A−/NKG2C− NK cells; Trial 4): 19.3%
percentage CCL3+ NK cells (NKG2A−/NKG2C− NK cells; Trial 5): 25%
percentage CD107+ NK cells (NKG2A−/NKG2C− NK cells; Trial 5): 19.2%
percentage TNF+ NK cells (NKG2A−/NKG2C− NK cells; Trial 5): 5.02%
percentage of IFNG+ NK cells (NKG2A−/NKG2C− NK cells; Trial 5): 13.7%
percentage CCL3+ NK cells (NKG2A−/NKG2C− NK cells; Trial 6): 25.1%
percentage CD107+ NK cells (NKG2A−/NKG2C− NK cells; Trial 6): 22.6%
percentage TNF+ NK cells (NKG2A−/NKG2C− NK cells; Trial 6): 5.37%
percentage of IFNG+ NK cells (NKG2A−/NKG2C− NK cells; Trial 6): 12.1%
HLA-E surface expression stability (GeoMFI) (HLA-E; Trial 1): 1174 GeoMFI
HLA-E surface expression stability (GeoMFI) (HLA-E; Trial 2): 921 GeoMFI
HLA-E surface expression stability (GeoMFI) (HLA-E; Trial 3): 887 GeoMFI
HLA-E surface expression stability (GeoMFI) (HLA-E; Trial 4): 1378 GeoMFI
HLA-E surface expression stabilization strength, approximate GeoMFI (HLA-E; approximate value): approximately 1×10^3 GeoMFI

RMPPRSVLL [human12]
effect on NKG2A+/NKG2C− NK cell inhibition (in words) (NKG2A+/NKG2C− NK cells): strong inhibitory
percentage of CCL3+ NK cells (NKG2A+/NKG2C− NK cells; Trial 1): 1.94%
percentage of CD107a+ NK cells (NKG2A+/NKG2C− NK cells; Trial 1): 0.85%
percentage of IFNG+ NK cells (NKG2A+/NKG2C− NK cells; Trial 1): 0.14%
percentage of TNF+ NK cells (NKG2A+/NKG2C− NK cells; Trial 1): 0.03%
percentage of CCL3+ NK cells (NKG2A+/NKG2C− NK cells; Trial 2): 2.96%
percentage of CD107a+ NK cells (NKG2A+/NKG2C− NK cells; Trial 2): 0.99%
percentage of IFNG+ NK cells (NKG2A+/NKG2C− NK cells; Trial 2): 0.32%
percentage of TNF+ NK cells (NKG2A+/NKG2C− NK cells; Trial 2): 0.17%
percentage of CCL3+ NK cells (NKG2A+/NKG2C− NK cells; Trial 3): 2.9%
percentage of CD107a+ NK cells (NKG2A+/NKG2C− NK cells; Trial 3): 1.25%
percentage of IFNG+ NK cells (NKG2A+/NKG2C− NK cells; Trial 3): 0.65%
percentage of TNF+ NK cells (NKG2A+/NKG2C− NK cells; Trial 3): 0.45%
effect on NKG2A−/NKG2C+ NK cell activation (in words) (NKG2A−/NKG2C+ NK cells; listed as SEQ ID NO. 13): strong activating effects
effect on NKG2A−/NKG2C+ NK cell activation (in words) (NKG2A−/NKG2C+ NK cells; listed as h12): strong inhibitory and activating effects
percentage of CCL3+ NK cells (NKG2A−/NKG2C+ NK cells; Trial 1): 55.3%
percentage of CD107+ NK cells (NKG2A−/NKG2C+ NK cells; Trial 1): 36.5%
percentage of IFNG+ NK cells (NKG2A−/NKG2C+ NK cells; Trial 1): 20.7%
percentage of TNF+ NK cells (NKG2A−/NKG2C+ NK cells; Trial 1): 12.6%
percentage of CCL3+ NK cells (NKG2A−/NKG2C+ NK cells; Trial 2): 83.9%
percentage of CD107+ NK cells (NKG2A−/NKG2C+ NK cells; Trial 2): 77%
percentage of IFNG+ NK cells (NKG2A−/NKG2C+ NK cells; Trial 2): 63.3%
percentage of TNF+ NK cells (NKG2A−/NKG2C+ NK cells; Trial 2): 52.7%
percentage of CCL3+ NK cells (NKG2A−/NKG2C+ NK cells; Trial 3): 81.7%
percentage of CD107+ NK cells (NKG2A−/NKG2C+ NK cells; Trial 3): 80.3%
percentage of IFNG+ NK cells (NKG2A−/NKG2C+ NK cells; Trial 3): 66.3%
percentage of TNF+ NK cells (NKG2A−/NKG2C+ NK cells; Trial 3): 59.6%
percentage CCL3+ NK cells (NKG2A−/NKG2C− NK cells; Trial 1): 29.3%
percentage CD107+ NK cells (NKG2A−/NKG2C− NK cells; Trial 1): 20.2%
percentage TNF+ NK cells (NKG2A−/NKG2C− NK cells; Trial 1): 3.43%
percentage of IFNG+ NK cells (NKG2A−/NKG2C− NK cells; Trial 1): 10.2%
percentage CCL3+ NK cells (NKG2A−/NKG2C− NK cells; Trial 2): 51.6%
percentage CD107+ NK cells (NKG2A−/NKG2C− NK cells; Trial 2): 29%
percentage TNF+ NK cells (NKG2A−/NKG2C− NK cells; Trial 2): 9.58%
percentage of IFNG+ NK cells (NKG2A−/NKG2C− NK cells; Trial 2): 24%
percentage CCL3+ NK cells (NKG2A−/NKG2C− NK cells; Trial 3): 46.5%
percentage CD107+ NK cells (NKG2A−/NKG2C− NK cells; Trial 3): 42%
percentage TNF+ NK cells (NKG2A−/NKG2C− NK cells; Trial 3): 15.5%
percentage of IFNG+ NK cells (NKG2A−/NKG2C− NK cells; Trial 3): 36.2%
HLA-E surface expression stability (GeoMFI) (HLA-E; Trial 1): 3779 GeoMFI
HLA-E surface expression stability (GeoMFI) (HLA-E; Trial 2): 4219 GeoMFI
HLA-E surface expression stability (GeoMFI) (HLA-E; Trial 3): 4273 GeoMFI
HLA-E surface expression stability (GeoMFI) (HLA-E; Trial 4): 4705 GeoMFI
